We go through one compound from BindingDB's records for doi:10.1111/cbdd.12372 (Beijing University of Technology, 2015).

What is called IC50 is the concentration that gives 50% inhibition. Read a high IC50 as a need for much substance.

The assay deals with T1, Casein kinase II subunit alpha [1-337] (Homo sapiens, UniProt P68400).
T1 construct: 1-337
Description: Molecular Docking. The source says: The atomic co-ordinates of CK2α were retrieved from the Protein Data Bank [PDB ID: 3PE1] by deleting the heteroatoms except for water molecules within 6.5 of the ligand. Compounds 12, 23, 10, and 27 were constructed with the SYBYL 8.1 programa using compound CX-4945 as the template and were energy minimized with the Tripos force field. Four compounds were docked into the active site of CK2α using the molecular docking program Genetic Optimization for Ligand Docking (GOLD) version 3.0. The active site of CK2α was defined as a 6.5- -radius sphere centered on CX-4945, which comprise all complete amino acids there in. The crystal structure of CK2a in complex with compound CX-4945 was used to optimize docking parameters and evaluate the reliability of the docking methods. The standard default genetic algorithm (GA) parameters were used for all calculations and applied to predi

T1 sequence (P68400 1-337): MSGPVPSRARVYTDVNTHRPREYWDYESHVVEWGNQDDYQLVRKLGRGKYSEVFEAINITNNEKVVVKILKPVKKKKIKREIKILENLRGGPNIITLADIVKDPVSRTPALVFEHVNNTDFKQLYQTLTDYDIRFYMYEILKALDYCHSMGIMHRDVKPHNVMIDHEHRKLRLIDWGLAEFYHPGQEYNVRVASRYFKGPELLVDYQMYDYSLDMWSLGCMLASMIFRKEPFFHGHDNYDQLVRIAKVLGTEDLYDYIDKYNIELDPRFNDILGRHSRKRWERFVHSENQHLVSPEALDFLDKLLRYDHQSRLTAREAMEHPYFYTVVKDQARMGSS

`N#Cc1ccc2c(c1)nc(-c1ccc(Cl)cc1)c1ccncc12` [5-(4-chlorophenyl)benzo[c]2,6-naphthyridine-8-carbonitrile (Compound 10)] showed an IC50 of more than 2500 nM.
